Measurements reported in patent US20050032873A1, “3-Amino chroman and 2-amino tetralin derivatives” (Wyeth, priority 2003, published 2005).
Read-outs that look alike come from different tables or passages of the source.

Assays:
[1] = target: T1, serotonin transporter (Rattus norvegicus, UniProt P31652); test: 5-HT transporter affinity: displacement of 3H-paroxetine from male rat cortical membranes; assay type: binding; settings: displacement of 3H-paroxetine, male rat cortical membranes
T1 construct: displace ^3H-paroxetine from male rat cortical membranes; from tissue; host or cells: male rat cortical membranes
T1 sequence (P31652 whole entry): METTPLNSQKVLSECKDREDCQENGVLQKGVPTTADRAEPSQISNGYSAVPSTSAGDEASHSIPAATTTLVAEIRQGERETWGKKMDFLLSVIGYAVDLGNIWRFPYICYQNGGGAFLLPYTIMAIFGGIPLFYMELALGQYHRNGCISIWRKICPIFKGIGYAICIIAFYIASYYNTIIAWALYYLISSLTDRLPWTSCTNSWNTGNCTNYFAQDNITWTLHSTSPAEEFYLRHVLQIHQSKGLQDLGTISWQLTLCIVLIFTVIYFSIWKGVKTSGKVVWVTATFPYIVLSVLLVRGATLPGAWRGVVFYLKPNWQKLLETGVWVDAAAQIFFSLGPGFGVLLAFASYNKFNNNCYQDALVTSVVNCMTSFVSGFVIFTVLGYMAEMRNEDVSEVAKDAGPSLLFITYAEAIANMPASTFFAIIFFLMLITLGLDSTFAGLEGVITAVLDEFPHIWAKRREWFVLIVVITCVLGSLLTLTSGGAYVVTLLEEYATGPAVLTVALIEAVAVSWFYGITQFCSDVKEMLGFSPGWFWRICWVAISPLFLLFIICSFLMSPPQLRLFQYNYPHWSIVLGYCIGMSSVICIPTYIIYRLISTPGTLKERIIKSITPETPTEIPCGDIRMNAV

[2] = target: T2, cloned human 5-HT1A receptors (Homo sapiens, UniProt P08908); test: 35S-GTPγS binding assay, 5-HT1A function; assay type: biochemical; settings: for EC50: agonist potency; for IC50: antagonist potency, reversal of 8-OH-DPAT, read-out: 5-HT1A Function GTPγS IC50
T2 construct: expressed in transfected cells
T2 sequence (P08908 1-422): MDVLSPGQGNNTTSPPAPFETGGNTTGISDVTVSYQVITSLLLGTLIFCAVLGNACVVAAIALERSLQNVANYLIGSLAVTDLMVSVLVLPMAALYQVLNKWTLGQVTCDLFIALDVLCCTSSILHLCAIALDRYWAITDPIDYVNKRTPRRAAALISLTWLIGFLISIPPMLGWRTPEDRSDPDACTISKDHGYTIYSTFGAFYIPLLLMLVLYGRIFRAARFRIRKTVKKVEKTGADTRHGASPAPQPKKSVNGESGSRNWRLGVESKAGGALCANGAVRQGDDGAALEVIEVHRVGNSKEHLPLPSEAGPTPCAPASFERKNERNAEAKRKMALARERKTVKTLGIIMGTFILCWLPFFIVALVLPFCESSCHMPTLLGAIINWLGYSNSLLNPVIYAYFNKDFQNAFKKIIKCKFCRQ

[3] = target: T3, 5-HT1A receptor (Homo sapiens, UniProt P08908); test: 5-HT1A receptor affinity: displacement of [3H] 8-OH-DPAT; assay type: binding; parameters: expressed in transfected cells; settings: for inhibition at 1 µM: read-out: 5-HT1A Receptor Affinity, % @ 1 μM; for Ki: displacement of [3H] 8-OH-DPAT, CHO cells stably transfected with human 5-HT1A receptors, read-out: 5-HT1A Receptor Affinity Ki
T3 sequence (P08908 1-422): T2 sequence (P08908 1-422)

[4] = 5-HT Transporter Affinity Ki (nM)
[5] = maximum stimulatory effect, in brackets after EC50, read-out: 5-HT1A Function GTPγS (Emax)
[6] = read-out: 5-HT Transporter Affinity Ki
[7] = maximum inhibitory effect, in brackets after IC50, read-out: 5-HT1A Function GTPγS (Imax)

Structure (SMILES)	Ki [1, 4]	EC50 [2]	Emax [2, 5]	inhibition at 1 µM [3]	Ki [1, 6]	IC50 [2]	Emax [2, 7]	Ki [3]	5-HT1A Function GTPγS (Imax) ([2]; maximum inhibitory effect, in brackets after IC50)
COc1cccc2c1CC(N[C@H]1CC[C@H](c3c[nH]c4ccc(C#N)cc43)CC1)CO2 (relative stereo) [Compound 180b, 3-[(1,4-trans)-4-(5-Methoxy-chroman-3-ylamino)-cyclohexyl]-1H-indole-5-carbonitrile]	2.46 nM	925 nM	50.5%	20%	–	–	–	–	–
CCCCCN(CCCc1c[nH]c2ccc(F)cc12)C1COc2c(F)ccc(C(N)=O)c2C1 (centres unmarked) [Compound 71, 8-fluoro-3-[[3-(5-fluoro-1H-indol-3-yl)propyl](pentyl)amino]chromane-5-carboxamide]	–	–	–	44%	212 nM	8000 nM	13%	–	–
COc1cccc2c1CC(N[C@H]1CC[C@H](c3c[nH]c4ccc(F)cc43)CC1)CO2 (relative stereo) [Compound 181b, trans-N-[4-(5-fluoro-1H-indol-3-yl)cyclohexyl]-5-methoxychroman-3-amine]	–	–	–	46%	3.07 nM	115 nM	44.6%	–	–
COC(=O)c1ccc(F)c2c1C[C@H](N(CCCCc1c[nH]c3ccc(F)cc13)C1CCC1)CO2 [Compound 58a, Methyl (3S)-3-{cyclobutyl[4-(5-fluoro-1H-indol-3-yl)butyl]amino}-8-fluorochromane-5-carboxylate]	–	–	–	0%	46.6 nM	1960 nM	25%	–	–
COc1cccc2c(CCN(C3CCC3)C3COc4c(F)ccc(C(N)=O)c4C3)coc12 (centres unmarked) [Compound 159, 3-{cyclobutyl[2-(7-methoxy-1-benzofuran-3-yl)ethyl]amino}-8-fluorochromane-5-carboxamide]	–	–	–	30%	149 nM	5000 nM	25%	–	–
CNC(=O)c1cccc2c1CC(N(CCCc1c[nH]c3c(F)cc(F)cc13)C1CCC1)CO2 (centres unmarked) [Compound 138, 3-{cyclobutyl[3-(5,7-difluoro-1H-indol-3-yl)propyl]amino}-N-methylchromane-5-carboxamide]	–	43 nM	100%	–	3.34 nM	–	–	1.27 nM	–
COc1cccc2c1CC(N[C@H]1CC[C@@H](c3c[nH]c4ccc(C#N)cc43)CC1)CO2 (relative stereo) [Compound 180a, 3-[(1,4-cis)-4-(5-Methoxy-chroman-3-ylamino)-cyclohexyl]-1H-indole-5-carbonitrile]	13 nM	4230 nM	100%	19%	–	–	–	–	–
NC(=O)c1ccc(F)c2c1CC(N(CC1CCc3[nH]c4ccc(F)cc4c3C1)C1CCC1)CO2 (single isomer, unassigned; (-)) [Compound 174a, (−)-3-{cyclobutyl[(6-fluoro-2,3,4,9-tetrahydro-1H-carbazol-3-yl)methyl]amino}-8-fluorochromane-5-carboxamide]	–	–	–	49%	855 nM	8000 nM	–	–	50%
CCCN(CCCc1c[nH]c2ccc(F)cc12)C1COc2c(C(N)=O)ccc(F)c2C1 (centres unmarked) [Compound 120, 5-fluoro-3-[[3-(5-fluoro-1H-indol-3-yl)propyl](propyl)amino]chromane-8-carboxamide]	–	1100 nM	67%	–	22.5 nM	–	–	139 nM	–
COc1cccc2c(CCCNC3COc4c(F)ccc(C(N)=O)c4C3)c[nH]c12 (centres unmarked) [Compound 99, 8-fluoro-3-{[3-(7-methoxy-1H-indol-3-yl)propyl]amino}chromane-5-carboxamide]	–	–	–	48%	525 nM	4020 nM	100%	–	–
CCNC(=O)c1cccc2c1CC(N(CCCc1c[nH]c3c(F)cc(F)cc13)C1CCC1)CO2 (centres unmarked) [Compound 139, 3-{cyclobutyl[3-(5,7-difluoro-1H-indol-3-yl)propyl]amino}-N-ethylchromane-5-carboxamide]	–	180 nM	81%	–	3.9 nM	–	–	4.83 nM	–
O=C(O)c1ccc(F)c2c1CC(N(CCCc1c[nH]c3ccc(F)cc13)C1CCC1)CO2 (centres unmarked) [Compound 56, 3-{cyclobutyl[3-(5-fluoro-1H-indol-3-yl)propyl]amino}-8-fluorochromane-5-carboxylic acid]	–	–	–	4%	499 nM	5000 nM	50%	–	–
COC(=O)c1ccc(F)c2c1CC(N(CCCCc1c[nH]c3ccc(F)cc13)C1CCC1)CO2 (centres unmarked) [Compound 58, Methyl 3-{cyclobutyl[4-(5-fluoro-1H-indol-3-yl)butyl]amino}-8-fluorochromane-5-carboxylate]	–	8020 nM	49%	–	35.6 nM	–	–	202 nM	–
COc1cccc2c1CC(N[C@H]1CC[C@@H](c3c[nH]c4ccc(F)cc43)CC1)CO2 (relative stereo) [Compound 181a, cis-N-[4-(5-fluoro-1H-indol-3-yl)cyclohexyl]-5-methoxychroman-3-amine]	–	40000 nM	79.4%	37%	26 nM	–	–	–	–
NC(=O)c1ccc(F)c2c1CC(N(CCCCn1ccc3cccc(F)c31)C1CCC1)CO2 (centres unmarked) [Compound 192, 3-{Cyclobutyl[4-(7-fluoro-1H-indol-1-yl)butyl]amino}-8-fluorochromane-5-carboxamide]	–	–	–	–	39.3 nM	1750 nM	86%	39.9 nM	–
NC(=O)c1ccc(F)c2c1OCC(NCCCc1c[nH]c3ccc(F)cc13)C2 (centres unmarked) [Compound 119, 5-fluoro-3-{[3-(5-fluoro-1H-indol-3-yl)propyl]amino}chromane-8-carboxamide]	–	3160 nM	100%	–	14.2 nM	–	–	36.9 nM	–
NC(=O)c1ccc(F)c2c1C[C@@H](NCC1CCc3c([nH]c4ccc(F)cc34)C1)CO2 (single isomer, unassigned; (+)) [Compound 179a]	–	–	–	48%	33.2 nM	9030 nM	100%	–	–
CC(C1CC1)N(CCCc1c[nH]c2ccc(F)cc12)C1COc2c(F)ccc(C(N)=O)c2C1 (centres unmarked) [Compound 6, 3-{(1-cyclopropylethyl)[3-(5-fluoro-1H-indol-3-yl)propyl]amino}-8-fluorochromane-5-carboxamide]	–	–	–	30%	18.9 nM	4840 nM	87%	–	–
CNC(=O)c1ccc(F)c2c1CC(NCCCc1c[nH]c3ccc(F)cc13)CO2 (centres unmarked) [Compound 88, 8-fluoro-3-{[3-(5-fluoro-1H-indol-3-yl)propyl]amino}-N-methylchromane-5-carboxamide]	–	1780 nM	94%	–	12.2 nM	–	–	54.6 nM	–
CNC(=O)c1ccc(F)c2c1CC(NCCCCc1c[nH]c3ccc(F)cc13)CO2 (centres unmarked) [Compound 92, 8-fluoro-3-{[4-(5-fluoro-1H-indol-3-yl)butyl]amino}-N-methylchromane-5-carboxamide]	–	1170 nM	50%	47%	7.95 nM	–	–	–	–
O=C(Nc1ccccc1)c1ccc(F)c2c1CC(N(CCCc1c[nH]c3ccc(F)cc13)C1CCC1)CO2 (centres unmarked) [Compound 70, 3-{cyclobutyl[3-(5-fluoro-1H-indol-3-yl)propyl]amino}-8-fluoro-N-phenylchromane-5-carboxamide]	–	1800 nM	22%	36%	37.2 nM	–	–	–	–
CCCNC(=O)c1cccc2c1CC(N(CCCc1c[nH]c3c(F)cc(F)cc13)C1CCC1)CO2 (centres unmarked) [Compound 140, 3-{cyclobutyl[3-(5,7-difluoro-1H-indol-3-yl)propyl]amino}-N-propylchromane-5-carboxamide]	–	1020 nM	65%	–	3.78 nM	–	–	39.2 nM	–
CCCN(CCCCc1c[nH]c2ccc(F)cc12)C1COc2c(C(N)=O)ccc(F)c2C1 (centres unmarked) [Compound 124, 5-fluoro-3-[[4-(5-fluoro-1H-indol-3-yl)butyl](propyl)amino]chromane-8-carboxamide]	–	698 nM	41%	48%	9.9 nM	–	–	–	–
NC(=O)c1ccc(F)c2c1CC(N(CCCCn1ccc3ccc(F)cc31)C1CCC1)CO2 (centres unmarked) [Compound 196, 3-{Cyclobutyl[4-(6-fluoro-1H-indol-1-yl)butyl]amino}-8-fluorochromane-5-carboxamide]	–	–	–	–	124 nM	428 nM	100%	12.8 nM	–
NC(=O)c1cccc2c1C[C@@H](NCCCc1c[nH]c3ccc(F)cc13)CO2 [Compound 133b, (3R)-3-{[3-(5-fluoro-1H-indol-3-yl)propyl]amino}chromane-5-carboxamide]	–	1000 nM	83%	–	43.2 nM	–	–	38.6 nM	–
NC(=O)c1ccc(F)c2c1OCC(N(CCCc1c[nH]c3ccc(F)cc13)CC1CC1)C2 (centres unmarked) [Compound 121, 3-{(cyclopropylmethyl)[3-(5-fluoro-1H-indol-3-yl)propyl]amino}-5-fluorochromane-8-carboxamide]	–	3820 nM	70%	–	41.8 nM	–	–	67.7 nM	–
